Patent US20250235543A1, “MODIFIED PROTEINS AND PROTEIN DEGRADERS” (Cullgen (Shanghai), Inc., priority 2021, published 2025)

Tested on: P300/CBP
Assay: P300/CBP cellular protein degradation
Type: cell-based
Description: Cultured cells were washed with cold PBS once and lysed in cold RIPA buffer supplemented with protease inhibitors and phosphatase inhibitors (Beyotime Biotechnology). The solutions were then incubated at 4° C. for 30 min with gentle agitation to fully lysed cells. Cell lysates were centrifuged at 13,000 rpm for 10 min at 4° C. and pellets were discarded. Total protein concentrations in the lysates were determined following BCA assays (Beyotime Biotechnology). Cell lysates were mixed with Laemmli loading buffer and heated at 99° C. for 5 min. Proteins were resolved on SDS-PAGE and visualized using Western ECL Substrate kits on a ChemiDoc MP Imaging system (Bio-Rad). Protein bands were quantitated using the Image Lab software provided by Bio-Rad.

Row | Compound | P300/CBP Degradation (100 nM)
1 | CC(=O)N1CCc2c(c(N3CCCc4cc(-c5cnn(C)c5)c(C(F)F)cc43)nn2C2CCN(CC(=O)NCCCCCCCC(=O)Nc3ccccc3C(=O)Nc3nc(C)c([N+](=O)[O-])s3)CC2)C1 [CPD-215, 2-(8-(2-(4-(5-Acetyl-3-(7-(difluoromethyl)-6-(1-methyl-1H-pyrazol-4-yl)-3,4-dihydroquinolin-1(2H)-yl)-4,5,6,7-tetrahydro-1H-pyrazolo[4,3-c]pyridin-1-yl)piperidin-1-yl)acetamido)octanamido)-N-(4-methyl-5-nitrothiazol-2-yl)benzamide] | D (degradation activity < 30%)
2 | CC(=O)N1CCc2c(c(N3CCCc4cc(-c5cnn(C)c5)c(C(F)F)cc43)nn2C2CCN(CC(=O)NCCCCCC(=O)Nc3ccccc3C(=O)Nc3nc(C)c([N+](=O)[O-])s3)CC2)C1 [CPD-213, 2-(6-(2-(4-(5-Acetyl-3-(7-(difluoromethyl)-6-(1-methyl-1H-pyrazol-4-yl)-3,4-dihydroquinolin-1(2H)-yl)-4,5,6,7-tetrahydro-1H-pyrazolo[4,3-c]pyridin-1-yl)piperidin-1-yl)acetamido)hexanamido)-N-(4-methyl-5-nitrothiazol-2-yl)benzamide] | D (degradation activity < 30%)
3 | CC(=O)N1CCc2c(c(N3CCCc4cc(-c5cnn(C)c5)c(C(F)F)cc43)nn2C2CCN(CC(=O)NCCCCCCNc3ccc(C(=O)Nc4ncc(C)s4)c(C)c3)CC2)C1 [CPD-193, 4-((6-(2-(4-(A-Acetyl-3-(7-(difluoromethyl)-6-(1-methyl-1H-pyrazol-4-yl)-3,4-dihydroquinolin-1(2H)-yl)-4,5,6,7-tetrahydro-1H-pyrazolo[4,3-c]pyridin-1-yl)piperidin-1-yl)acetamido)hexyl)amino)-2-methyl-N-(5-methylthiazol-2-yl)benzamide] | D (degradation activity < 30%)
4 | CC(=O)N1CCc2c(c(N3CCCc4cc(-c5cnn(C)c5)c(C(F)F)cc43)nn2C2CCN(C(=O)CCCCC(=O)Nc3ccccc3C(=O)Nc3nc(C)c([N+](=O)[O-])s3)CC2)C1 [CPD-201, 2-(6-(4-(5-Acetyl-3-(7-(difluoromethyl)-6-(1-methyl-1H-pyrazol-4-yl)-3,4-dihydroquinolin-1(2H)-yl)-4,5,6,7-tetrahydro-1H-pyrazolo[4,3-c]pyridin-1-yl)piperidin-1-yl)-6-oxohexanamido)-N-(4-methyl-5-nitrothiazol-2-yl)benzamide] | D (degradation activity < 30%)
5 | CC(=O)N1CCc2c(c(N3CCCc4cc(-c5cnn(C)c5)c(C(F)F)cc43)nn2C2CCN(C(=O)CCCCCCCCCC(=O)Nc3ccccc3C(=O)Nc3nc(C)c([N+](=O)[O-])s3)CC2)C1 [CPD-206, 2-(11-(4-(5-Acetyl-3-(7-(difluoromethyl)-6-(1-methyl-1H-pyrazol-4-yl)-3,4-dihydroquinolin-1(2H)-yl)-4,5,6,7-tetrahydro-1H-pyrazolo[4,3-c]pyridin-1-yl)piperidin-1-yl)-11-oxoundecanamido)-N-(4-methyl-5-nitrothiazol-2-yl)benzamide] | D (degradation activity < 30%)
6 | CC(=O)N1CCc2c(c(N3CCCc4cc(-c5cnn(C)c5)c(C(F)F)cc43)nn2C2CCN(CC(=O)NCCCCCNc3ccc(C(=O)Nc4ncc(C)s4)c(C)c3)CC2)C1 [CPD-192, 4-((5-(2-(4-(5-Acetyl-3-(7-(difluoromethyl)-6-(1-methyl-1H-pyrazol-4-yl)-3,4-dihydroquinolin-1(2H)-yl)-4,5,6,7-tetrahydro-1H-pyrazolo[4,3-c]pyridin-1-yl)piperidin-1-yl)acetamido)pentyl)amino)-2-methyl-N-(5-methylthiazol-2-yl)benzamide] | D (degradation activity < 30%)
7 | CC(=O)N1CCc2c(c(N3CCCc4cc(-c5cnn(C)c5)c(C(F)F)cc43)nn2C2CCN(C(=O)CCCCCCCC(=O)Nc3ccccc3C(=O)Nc3nc(C)c([N+](=O)[O-])s3)CC2)C1 [CPD-204, 2-(9-(4-(5-Acetyl-3-(7-(difluoromethyl)-6-(1-methyl-1H-pyrazol-4-yl)-3,4-dihydroquinolin-1(2H)-yl)-4,5,6,7-tetrahydro-1H-pyrazolo[4,3-c]pyridin-1-yl)piperidin-1-yl)-9-oxononanamido)-N-(4-methyl-5-nitrothiazol-2-yl)benzamide] | D (degradation activity < 30%)
8 | CC(=O)N1CCc2c(c(N3CCCc4cc(-c5cnn(C)c5)c(C(F)F)cc43)nn2C2CCN(C(=O)CCCCCCCCC(=O)Nc3ccccc3C(=O)Nc3nc(C)c([N+](=O)[O-])s3)CC2)C1 [CPD-205, 2-(10-(4-(5-Acetyl-3-(7-(difluoromethyl)-6-(1-methyl-1H-pyrazol-4-yl)-3,4-dihydroquinolin-1(2H)-yl)-4,5,6,7-tetrahydro-1H-pyrazolo[4,3-c]pyridin-1-yl)piperidin-1-yl)-10-oxodecanamido)-N-(4-methyl-5-nitrothiazol-2-yl)benzamide] | D (degradation activity < 30%)
9 | CC(=O)N1CCc2c(c(N3CCCc4cc(-c5cnn(C)c5)c(C(F)F)cc43)nn2C2CCN(CC(=O)NCCCCCCC(=O)Nc3ccccc3C(=O)Nc3nc(C)c([N+](=O)[O-])s3)CC2)C1 [CPD-214, 2-(7-(2-(4-(5-Acetyl-3-(7-(difluoromethyl)-6-(1-methyl-1H-pyrazol-4-yl)-3,4-dihydroquinolin-1(2H)-yl)-4,5,6,7-tetrahydro-1H-pyrazolo[4,3-c]pyridin-1-yl)piperidin-1-yl)acetamido)heptanamido)-N-(4-methyl-5-nitrothiazol-2-yl)benzamide] | D (degradation activity < 30%)
10 | CC(=O)N1CCc2c(c(N3CCCc4cc(-c5cnn(C)c5)c(C(F)F)cc43)nn2C2CCN(CC(=O)NCCCCCCCCCCC(=O)Nc3ccccc3C(=O)Nc3nc(C)c([N+](=O)[O-])s3)CC2)C1 [CPD-218, 2-(11-(2-(4-(5-Acetyl-3-(7-(difluoromethyl)-6-(1-methyl-1H-pyrazol-4-yl)-3,4-dihydroquinolin-1(2H)-yl)-4,5,6,7-tetrahydro-1H-pyrazolo[4,3-c]pyridin-1-yl)piperidin-1-yl)acetamido)undecanamido)-N-(4-methyl-5-nitrothiazol-2-yl)benzamide] | D (degradation activity < 30%)
11 | CC(=O)N1CCc2c(c(N3CCCc4cc(-c5cnn(C)c5)c(C(F)F)cc43)nn2C2CCN(CC(=O)NCCCCCCCCNc3ccc(C(=O)Nc4ncc(C)s4)c(C)c3)CC2)C1 [CPD-195, 4-((8-(2-(4-(5-Acetyl-3-(7-(difluoromethyl)-6-(1-methyl-1H-pyrazol-4-yl)-3,4-dihydroquinolin-1(2H)-yl)-4,5,6,7-tetrahydro-1H-pyrazolo[4,3-c]pyridin-1-yl)piperidin-1-yl)acetamido)octyl)amino)-2-methyl-N-(5-methylthiazol-2-yl)benzamide] | D (degradation activity < 30%)
12 | CC(=O)N1CCc2c(c(N3CCCc4cc(-c5cnn(C)c5)c(C(F)F)cc43)nn2C2CCN(CC(=O)NCCOCCNc3ccc(C(=O)Nc4ncc(C)s4)c(C)c3)CC2)C1 [CPD-197, 4-((2-(2-(2-(4-(5-Acetyl-3-(7-(difluoromethyl)-6-(1-methyl-1H-pyrazol-4-yl)-3,4-dihydroquinolin-1(2H)-yl)-4,5,6,7-tetrahydro-1H-pyrazolo[4,3-c]pyridin-1-yl)piperidin-1-yl)acetamido)ethoxy)ethyl)amino)-2-methyl-N-(5-methylthiazol-2-yl)benzamide] | D (degradation activity < 30%)
13 | CC(=O)N1CCc2c(c(N3CCCc4cc(-c5cnn(C)c5)c(C(F)F)cc43)nn2C2CCN(CC(=O)NCCNc3ccc(C(=O)Nc4ncc(C)s4)c(C)c3)CC2)C1 [CPD-189, 4-((2-(2-(4-(5-Acetyl-3-(7-(difluoromethyl)-6-(1-methyl-1H-pyrazol-4-yl)-3,4-dihydroquinolin-1(2H)-yl)-4,5,6,7-tetrahydro-1H-pyrazolo[4,3-c]pyridin-1-yl)piperidin-1-yl)acetamido)ethyl)amino)-2-methyl-N-(5-methylthiazol-2-yl)benzamide] | D (degradation activity < 30%)
14 | CC(=O)N1CCc2c(c(N3CCCc4cc(-c5cnn(C)c5)c(C(F)F)cc43)nn2C2CCN(CC(=O)NCCCCCCCCCC(=O)Nc3ccccc3C(=O)Nc3nc(C)c([N+](=O)[O-])s3)CC2)C1 [CPD-217, 2-(10-(2-(4-(5-Acetyl-3-(7-(difluoromethyl)-6-(1-methyl-1H-pyrazol-4-yl)-3,4-dihydroquinolin-1(2H)-yl)-4,5,6,7-tetrahydro-1H-pyrazolo[4,3-c]pyridin-1-yl)piperidin-1-yl)acetamido)decanamido)-N-(4-methyl-5-nitrothiazol-2-yl)benzamide] | D (degradation activity < 30%)
15 | CC(=O)N1CCc2c(c(N3CCCc4cc(-c5cnn(C)c5)c(C(F)F)cc43)nn2C2CCN(CC(=O)NCCCCCCCCCNc3ccc(C(=O)Nc4ncc(C)s4)c(C)c3)CC2)C1 [CPD-196, 4-((9-(2-(4-(5-Acetyl-3-(7-(difluoromethyl)-6-(1-methyl-1H-pyrazol-4-yl)-3,4-dihydroquinolin-1(2H)-yl)-4,5,6,7-tetrahydro-1H-pyrazolo[4,3-c]pyridin-1-yl)piperidin-1-yl)acetamido)nonyl)amino)-2-methyl-N-(5-methylthiazol-2-yl)benzamide] | D (degradation activity < 30%)
16 | CC(=O)N1CCc2c(c(N3CCCc4cc(-c5cnn(C)c5)c(C(F)F)cc43)nn2C2CCN(C(=O)CCCCCCC(=O)Nc3ccccc3C(=O)Nc3nc(C)c([N+](=O)[O-])s3)CC2)C1 [CPD-203, 2-(8-(4-(5-Acetyl-3-(7-(difluoromethyl)-6-(1-methyl-1H-pyrazol-4-yl)-3,4-dihydroquinolin-1(2H)-yl)-4,5,6,7-tetrahydro-1H-pyrazolo[4,3-c]pyridin-1-yl)piperidin-1-yl)-8-oxooctanamido)-N-(4-methyl-5-nitrothiazol-2-yl)benzamide] | D (degradation activity < 30%)
